Assay results from ChEMBL document CHEMBL5512623, “Discovery of the novel and potent histamine H1 receptor antagonists for treatment of allergic diseases” (Eur J Med Chem, 2024).
pIC50: −log10 of the molar value.

How the values were obtained:
[1] = target: Muscarinic acetylcholine receptor M3 (Homo sapiens, UniProt P20309); experiment: Antagonist activity at human muscarinic M3 receptor expressed in PathHunter U2OS CHRM3 beta-arrestin cells preincubated for 30 mins followed by agonist addition at 6 times EC80 and measured after 90 to 180 mins by PathHunter assay; assay type: functional, cell-based
Chain of Muscarinic acetylcholine receptor M3 (P20309 whole entry): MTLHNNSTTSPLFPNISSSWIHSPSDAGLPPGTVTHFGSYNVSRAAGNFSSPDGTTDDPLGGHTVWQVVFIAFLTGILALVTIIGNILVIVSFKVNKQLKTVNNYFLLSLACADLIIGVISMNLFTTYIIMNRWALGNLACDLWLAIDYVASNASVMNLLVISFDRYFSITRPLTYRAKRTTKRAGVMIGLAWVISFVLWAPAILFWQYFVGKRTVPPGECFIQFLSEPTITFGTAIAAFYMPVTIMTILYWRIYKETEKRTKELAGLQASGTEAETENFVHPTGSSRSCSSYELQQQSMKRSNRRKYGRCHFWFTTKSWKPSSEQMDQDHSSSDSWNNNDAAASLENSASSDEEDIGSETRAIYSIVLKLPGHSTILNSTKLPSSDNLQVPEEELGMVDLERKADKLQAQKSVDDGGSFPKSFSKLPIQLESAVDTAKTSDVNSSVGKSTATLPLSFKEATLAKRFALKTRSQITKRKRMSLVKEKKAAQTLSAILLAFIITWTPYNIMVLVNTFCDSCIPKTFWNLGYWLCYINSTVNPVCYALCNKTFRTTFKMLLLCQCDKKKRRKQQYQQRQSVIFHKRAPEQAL

[2] = target: Voltage-gated inwardly rectifying potassium channel KCNH2 (Homo sapiens, UniProt Q12809); experiment: Inhibition of hERG in HEK293 cells measured after 5 mins by patch-clamp assay
Chain of Voltage-gated inwardly rectifying potassium channel KCNH2 (Q12809 whole entry): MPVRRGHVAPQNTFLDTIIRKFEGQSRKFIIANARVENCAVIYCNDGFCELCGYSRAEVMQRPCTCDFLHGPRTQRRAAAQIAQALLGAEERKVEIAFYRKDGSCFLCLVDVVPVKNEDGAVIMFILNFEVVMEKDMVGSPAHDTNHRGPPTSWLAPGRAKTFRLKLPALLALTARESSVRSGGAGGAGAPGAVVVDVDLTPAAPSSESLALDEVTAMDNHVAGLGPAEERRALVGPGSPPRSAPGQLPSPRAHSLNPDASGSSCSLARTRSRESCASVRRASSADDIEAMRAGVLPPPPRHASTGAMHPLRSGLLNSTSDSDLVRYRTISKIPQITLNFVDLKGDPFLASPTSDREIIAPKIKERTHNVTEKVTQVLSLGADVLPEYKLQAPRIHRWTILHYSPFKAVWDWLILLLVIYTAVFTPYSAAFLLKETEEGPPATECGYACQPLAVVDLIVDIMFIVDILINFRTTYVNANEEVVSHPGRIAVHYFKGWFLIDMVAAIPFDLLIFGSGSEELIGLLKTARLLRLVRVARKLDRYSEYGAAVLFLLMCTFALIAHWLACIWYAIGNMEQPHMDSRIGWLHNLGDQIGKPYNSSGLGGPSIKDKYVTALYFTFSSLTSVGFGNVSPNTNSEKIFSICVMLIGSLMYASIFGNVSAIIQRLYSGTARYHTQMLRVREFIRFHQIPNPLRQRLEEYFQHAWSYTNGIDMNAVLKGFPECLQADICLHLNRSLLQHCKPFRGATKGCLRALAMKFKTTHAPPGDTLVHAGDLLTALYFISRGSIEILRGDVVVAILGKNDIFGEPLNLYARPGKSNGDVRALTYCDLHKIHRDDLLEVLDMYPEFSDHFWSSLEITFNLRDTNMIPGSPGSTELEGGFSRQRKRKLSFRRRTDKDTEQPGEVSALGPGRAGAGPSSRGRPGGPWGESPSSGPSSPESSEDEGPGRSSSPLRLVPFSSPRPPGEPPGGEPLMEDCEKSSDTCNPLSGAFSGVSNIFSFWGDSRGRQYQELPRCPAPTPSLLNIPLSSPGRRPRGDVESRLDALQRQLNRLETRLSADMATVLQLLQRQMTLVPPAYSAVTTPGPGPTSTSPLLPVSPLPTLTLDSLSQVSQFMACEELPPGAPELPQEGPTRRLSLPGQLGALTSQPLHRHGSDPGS

| SMILES | pIC50 [1] | pIC50 [2] |
| --- | --- | --- |
| CC(C)(C(=O)O)c1ccc(CCN2CCC(=C3c4ccc(Cl)cc4CCc4cccnc43)CC2)cc1 | < 5.00 | < 4.52 |
| CC(C)(C(=O)O)c1ccc(CCCN2CCC(=C3c4ccc(Cl)cc4CCc4cccnc43)CC2)c(F)c1 | < 5.00 | 4.52 |
| NC(=O)c1cn(CCN2CCC(=C3c4ccc(Cl)cc4CCc4cccnc43)CC2)nn1 | < 5.00 | 5.20 |
| CC(C)(C(=O)O)c1ccc(CN2CCC(=C3c4ccc(Cl)cc4CCc4cccnc43)CC2)cc1 | < 5.00 | 4.74 |
